These results are taken from ChEMBL document CHEMBL1201862, “PubChem BioAssay data set” (2004).

Calls of active or inactive are those of the source. Bounds are passed on as bounds.

Usually AC50 stands for the concentration at which the activity in the assay is half-maximal. The IC50 is the concentration needed to halve the response being measured. One may read the EC50 as the concentration that produces a half-maximal response.

The target in one assay is Cytochrome P450 2C9 (Homo sapiens, UniProt P11712).
Sequence of Cytochrome P450 2C9 (P11712 whole entry): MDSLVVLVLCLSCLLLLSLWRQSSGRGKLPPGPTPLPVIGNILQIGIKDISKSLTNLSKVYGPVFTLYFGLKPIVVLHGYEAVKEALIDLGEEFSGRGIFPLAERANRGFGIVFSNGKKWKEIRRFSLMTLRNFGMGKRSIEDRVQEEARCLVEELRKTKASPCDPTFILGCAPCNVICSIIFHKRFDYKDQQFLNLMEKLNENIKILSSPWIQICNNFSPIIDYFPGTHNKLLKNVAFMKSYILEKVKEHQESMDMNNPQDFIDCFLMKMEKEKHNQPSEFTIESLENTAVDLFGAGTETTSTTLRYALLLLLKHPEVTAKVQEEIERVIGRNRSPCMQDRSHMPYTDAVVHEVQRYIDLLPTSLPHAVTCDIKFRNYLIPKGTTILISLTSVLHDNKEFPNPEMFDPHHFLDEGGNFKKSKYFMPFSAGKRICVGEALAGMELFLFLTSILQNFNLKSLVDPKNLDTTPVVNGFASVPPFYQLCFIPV
For assay [1], the target named is T1, Histone-lysine N-methyltransferase NSD2 (Homo sapiens, UniProt O96028).
T1 sequence (O96028 whole entry): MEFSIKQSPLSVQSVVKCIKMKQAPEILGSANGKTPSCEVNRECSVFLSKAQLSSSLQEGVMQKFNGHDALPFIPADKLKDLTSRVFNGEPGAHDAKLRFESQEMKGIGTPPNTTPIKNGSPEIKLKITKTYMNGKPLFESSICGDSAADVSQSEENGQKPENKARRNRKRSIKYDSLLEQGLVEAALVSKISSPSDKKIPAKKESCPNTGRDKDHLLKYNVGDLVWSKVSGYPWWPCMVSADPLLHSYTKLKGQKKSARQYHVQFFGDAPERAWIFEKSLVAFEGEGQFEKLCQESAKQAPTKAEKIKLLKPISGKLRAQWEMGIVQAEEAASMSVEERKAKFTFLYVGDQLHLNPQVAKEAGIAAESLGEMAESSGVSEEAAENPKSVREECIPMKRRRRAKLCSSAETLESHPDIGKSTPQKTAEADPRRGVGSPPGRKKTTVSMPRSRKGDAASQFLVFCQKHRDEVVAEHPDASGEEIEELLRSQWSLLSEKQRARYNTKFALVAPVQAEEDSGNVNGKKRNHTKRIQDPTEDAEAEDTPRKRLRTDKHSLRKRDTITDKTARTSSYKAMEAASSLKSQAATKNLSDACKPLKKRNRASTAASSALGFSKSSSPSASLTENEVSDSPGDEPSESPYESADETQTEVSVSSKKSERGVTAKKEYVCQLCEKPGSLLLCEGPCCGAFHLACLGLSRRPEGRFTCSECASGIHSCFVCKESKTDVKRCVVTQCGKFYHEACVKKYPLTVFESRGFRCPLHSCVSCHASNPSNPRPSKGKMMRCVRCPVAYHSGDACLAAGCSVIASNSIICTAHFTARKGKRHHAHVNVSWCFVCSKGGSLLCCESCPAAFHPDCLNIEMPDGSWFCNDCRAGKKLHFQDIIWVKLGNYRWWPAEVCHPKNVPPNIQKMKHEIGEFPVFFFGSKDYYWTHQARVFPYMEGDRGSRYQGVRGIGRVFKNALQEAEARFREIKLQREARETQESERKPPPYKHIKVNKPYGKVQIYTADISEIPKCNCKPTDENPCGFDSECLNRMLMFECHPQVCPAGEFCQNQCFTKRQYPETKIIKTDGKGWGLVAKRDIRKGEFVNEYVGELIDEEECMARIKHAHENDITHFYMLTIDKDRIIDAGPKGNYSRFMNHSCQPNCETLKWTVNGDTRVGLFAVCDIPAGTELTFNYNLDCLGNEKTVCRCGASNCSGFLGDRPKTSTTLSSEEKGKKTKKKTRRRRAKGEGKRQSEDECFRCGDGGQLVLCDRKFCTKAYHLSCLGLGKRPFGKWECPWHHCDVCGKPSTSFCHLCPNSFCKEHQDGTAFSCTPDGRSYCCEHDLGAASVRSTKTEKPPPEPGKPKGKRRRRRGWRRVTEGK
The class given is biochemical.

Assay [2] has as its target T2, Tyrosyl-DNA phosphodiesterase 2 (Homo sapiens, UniProt O95551).
T2 sequence (O95551 whole entry): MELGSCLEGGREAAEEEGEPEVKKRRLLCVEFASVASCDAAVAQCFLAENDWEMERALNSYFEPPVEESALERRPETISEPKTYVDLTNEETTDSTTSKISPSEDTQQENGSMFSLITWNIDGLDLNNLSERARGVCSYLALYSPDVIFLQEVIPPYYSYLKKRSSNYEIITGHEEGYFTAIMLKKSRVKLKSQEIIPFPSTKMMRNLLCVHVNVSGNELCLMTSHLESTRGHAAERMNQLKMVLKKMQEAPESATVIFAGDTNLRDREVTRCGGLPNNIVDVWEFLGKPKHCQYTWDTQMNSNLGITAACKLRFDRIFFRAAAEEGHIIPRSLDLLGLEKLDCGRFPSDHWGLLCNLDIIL
The assay is described as follows: human TDP2 enzyme inhibitors, dose response, biochemical, epi absorbance, IC50 (AID 743297).

The target in assay [3] is T3, Endoribonuclease toxin MazF (Escherichia coli K-12, UniProt P0AE70).
T3 sequence (P0AE70 whole entry): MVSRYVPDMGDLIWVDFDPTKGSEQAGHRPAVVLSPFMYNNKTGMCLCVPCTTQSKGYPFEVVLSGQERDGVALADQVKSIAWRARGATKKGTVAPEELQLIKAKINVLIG
The assay is described as follows: fluorescent RNA oligo signal without MazF, dose response, counter-screen for MazEF activator project, biochemical, fluorescence, single-stranded RNase substrate (AID 588502). Format: functional.

For assay [4], the target named is T3, Endoribonuclease toxin MazF. As to the kind of experiment: MazF toxin RNase activators, dose response, biochemical, fluorescence, single-stranded RNA substrate, uHTS hits (AID 588481). The class given is functional.
The next assay deals with Genome polyprotein (dengue virus type 2, UniProt P29990). The assay is described as follows: Dengue-2 NS5 methyltransferase inhibitors, primary screen, biochemical, confirmation dose response (AID 588689). The class given is functional.
Sequence of Genome polyprotein (P29990 2492-3391 limits assumed): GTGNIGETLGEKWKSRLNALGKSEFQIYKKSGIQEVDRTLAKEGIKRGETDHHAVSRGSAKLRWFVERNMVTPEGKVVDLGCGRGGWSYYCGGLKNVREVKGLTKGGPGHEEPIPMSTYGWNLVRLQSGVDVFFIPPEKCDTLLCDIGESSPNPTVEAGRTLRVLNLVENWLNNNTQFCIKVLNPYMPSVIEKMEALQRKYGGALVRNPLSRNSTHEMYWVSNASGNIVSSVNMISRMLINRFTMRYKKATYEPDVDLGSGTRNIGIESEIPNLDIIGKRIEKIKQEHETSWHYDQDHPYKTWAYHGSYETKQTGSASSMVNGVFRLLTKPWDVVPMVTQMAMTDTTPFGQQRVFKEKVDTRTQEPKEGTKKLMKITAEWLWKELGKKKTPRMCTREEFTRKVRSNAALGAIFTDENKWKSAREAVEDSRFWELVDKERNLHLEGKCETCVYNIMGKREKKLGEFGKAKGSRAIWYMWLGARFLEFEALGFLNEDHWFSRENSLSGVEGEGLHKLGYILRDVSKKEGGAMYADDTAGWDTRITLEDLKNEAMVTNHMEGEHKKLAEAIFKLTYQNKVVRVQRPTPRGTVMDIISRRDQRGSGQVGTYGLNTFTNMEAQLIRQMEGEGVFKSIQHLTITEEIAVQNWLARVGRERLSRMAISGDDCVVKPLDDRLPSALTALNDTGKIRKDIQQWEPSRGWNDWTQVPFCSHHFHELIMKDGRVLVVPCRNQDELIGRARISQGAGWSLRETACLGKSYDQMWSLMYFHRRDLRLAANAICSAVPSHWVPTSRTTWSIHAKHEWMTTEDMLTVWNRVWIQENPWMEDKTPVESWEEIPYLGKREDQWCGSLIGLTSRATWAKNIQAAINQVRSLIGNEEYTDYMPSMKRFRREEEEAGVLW
Assay [5] has as its target T4, Microphthalmia-associated transcription factor (Homo sapiens, UniProt O75030).
T4 sequence (O75030 whole entry): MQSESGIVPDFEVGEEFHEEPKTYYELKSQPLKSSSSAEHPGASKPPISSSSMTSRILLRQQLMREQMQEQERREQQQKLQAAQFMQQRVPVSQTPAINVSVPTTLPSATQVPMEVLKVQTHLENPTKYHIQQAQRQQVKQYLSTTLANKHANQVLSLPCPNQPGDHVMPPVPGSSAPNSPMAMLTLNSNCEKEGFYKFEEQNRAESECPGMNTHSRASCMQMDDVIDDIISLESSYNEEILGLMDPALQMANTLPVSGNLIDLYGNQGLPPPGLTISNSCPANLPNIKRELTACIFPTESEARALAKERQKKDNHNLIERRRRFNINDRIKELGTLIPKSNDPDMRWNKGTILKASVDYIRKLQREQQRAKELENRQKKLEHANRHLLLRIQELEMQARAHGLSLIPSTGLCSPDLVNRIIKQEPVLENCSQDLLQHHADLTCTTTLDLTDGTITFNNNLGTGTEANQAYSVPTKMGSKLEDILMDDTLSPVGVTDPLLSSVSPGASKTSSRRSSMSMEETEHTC
The assay is described as follows: TRPM1 promoter luciferase signal decrease, dose response, MITF inhibitor project, cell-based, SK-MEL-5, cherry-picked, set 3 (AID 493073).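 Also: SK-MEL-5 melanoma cells with luciferase driven by the MITF target TRPM1 promoter.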 The class given is functional.

Assay [6] concerns the target Glucose-6-phosphate 1-dehydrogenase (Homo sapiens, UniProt P11413). As to the kind of experiment: human G6PD enzyme inhibitors, dose response, selectivity assay for P. falciparum G6PD inhibitor project, biochemical, fluorescence (AID 504792). The class given is functional.

Sequence of Glucose-6-phosphate 1-dehydrogenase (P11413 whole entry): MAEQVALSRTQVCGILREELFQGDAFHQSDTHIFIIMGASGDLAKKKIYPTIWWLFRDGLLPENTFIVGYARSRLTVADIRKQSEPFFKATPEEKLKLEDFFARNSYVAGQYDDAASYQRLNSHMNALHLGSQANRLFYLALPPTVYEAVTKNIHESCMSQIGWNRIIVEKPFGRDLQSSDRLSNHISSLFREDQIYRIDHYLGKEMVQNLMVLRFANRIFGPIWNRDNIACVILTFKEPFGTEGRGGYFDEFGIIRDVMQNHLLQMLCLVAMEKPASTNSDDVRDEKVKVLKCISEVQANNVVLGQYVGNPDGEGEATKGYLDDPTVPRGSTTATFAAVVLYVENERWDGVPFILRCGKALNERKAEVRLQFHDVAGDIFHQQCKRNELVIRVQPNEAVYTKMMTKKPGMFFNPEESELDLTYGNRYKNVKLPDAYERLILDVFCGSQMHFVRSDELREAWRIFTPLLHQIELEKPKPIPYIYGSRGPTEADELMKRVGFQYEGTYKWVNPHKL

Regarding `CC(C)=CCC1=C(OCC(=O)O)C(=O)c2ccccc2C1=O`, the AC50 on Cytochrome P450 2C9 is 3.98 µM (inconclusive); in assay [1], 3.99 µM (active). Besides, in assay [2], the IC50 is 23.6 µM (inactive).
On to `Cc1[nH][nH]c(=O)c1C(c1c(C)[nH][nH]c1=O)c1cn(Cc2ccccc2Cl)c2ccccc12`, for which the EC50 in assay [3] and in assay [4] was > 99 µM (inactive) in each case. In addition, the AC50 in assay [1] is 17.8 µM (active). In assay [2], the IC50 is 54.2 µM (inactive).
In the case of `Cc1cccc(NC2=C(NC(=O)c3ccccc3)C(=O)c3ccccc3C2=O)c1`, the figures for the IC50 (on Genome polyprotein; in assay [6]) were 58.4 µM (active) and > 80 µM (inactive), respectively. Further, the AC50 in assay [5] was 9.99 µM (active).
